“Also recorded” adds a separate entry of the source.
Legend:
[1] = test system: human smooth muscle cell; assay: in vitro human smooth muscle cell culture testing, incorporated thymidine; format: cell-based; conditions: exposure for 8 hours; human smooth muscle cells; read-out: IC50 (incorporated thymidine, anti-proliferative)
Method: The amounts of incorporated thymidine for samples of myolimus of varying concentrations (0.0001, 0.001, 0.01, 0.1, and 1 μM) and of rapamycin of varying concentrations (0.0001, 0.001, 0.01, 0.1, and 1 μM) were measured after exposure for 8 hours (as shown in FIG. 1). The IC50 of both myolimus and rapamycin was 0.1 nM indicating potent anti-proliferative properties.

[2] = test system: MCP-1; assay: MCP-1 production by LPS-activated macrophages, ELISA; format: cell-based; conditions: 10 nM
Method: (§1) In cell culture studies, macrophages were activated to secrete cytokines such as MMP-9 and MCP-1 by treating the cells to E Coli lippopolysaccharide (LPS). Inhibition of these cytokines upon treatment of the activated macrophages with myolimus and rapamycin with 10 nM concentration was tested using ELISA assay.

[3] = test system: MMP-9; assay: MMP-9 production by LPS-activated macrophages, ELISA; format: cell-based; conditions: 10 nM
Method: as §1

[4] = cited from earlier work

| Structure (SMILES) | IC50 [1] [nM] | production of cytokine MCP-1 [2] | production of cytokine MCP-1 ([2]; listed as Myolimus) | production of the cytokine MMP-9 [3] | production of the cytokine MMP-9 ([3]; listed as Myolimus) | solubility in water [4] | production of the cytokine MMP-9 ([3]; listed as Rapamycin) |
| --- | --- | --- | --- | --- | --- | --- | --- |
| CO[C@H]1C[C@@H]2CC[C@@H](C)[C@@](O)(O2)C(=O)C(=O)N2CCCC[C@H]2C(=O)O[C@H]([C@H](C)C[C@@H]2CC[C@@H](O)[C@H](OC)C2)CC[C@H](C)/C=C(\C)[C@@H](O)[C@@H](OC)C(=O)[C@H](C)C[C@H](C)/C=C/C=C/C=C/1C [myolimus, 32-deoxo-rapamycin] | 0.1 | inhibiting the production | reduced the production | inhibiting production of MMP-9 | reduced the production |  |  |
| CO[C@H]1C[C@@H]2CC[C@@H](C)[C@@](O)(O2)C(=O)C(=O)N2CCCC[C@H]2C(=O)O[C@H]([C@H](C)C[C@@H]2CC[C@@H](O)[C@H](OC)C2)CC(=O)[C@H](C)/C=C(\C)[C@@H](O)[C@@H](OC)C(=O)[C@H](C)C[C@H](C)/C=C/C=C/C=C/1C [rapamycin, Rapamycin] | 0.1 | did not impact the production of MCP-1; also recorded: did not have any impact |  | increased the production of MMP-9 |  | very slightly soluble in water | increased the production |

From patent US20130230571A1, “MACROCYCLIC LACTONE COMPOUNDS AND METHODS FOR THEIR USE” (Elixir Medical Corporation, priority 2010, published 2013)
